The values below are quoted from earlier work in patent US20260057961A1, “CHROMOSOME 9P24 LOSS AND GAIN PREDICTS RESISTANCE AND BENEFIT OF IMMUNE CHECKPOINT INHIBITORS” (THE REGENTS OF THE UNIVERSITY OF CALIFORNIA, priority 2022, published 2026).

Series [1] has as its system HNSC. The following applies: recurrent/metastatic setting after platinum failure.
Series [2] relates to HNSC.

As to pembrolizumab, the “overall survival compared to chemotherapy or cetuximab” value in series [1] is reported as “improved overall survival”. In series [2] (pembrolizumab alone, approximately 20% of patients, with no PD-L1 expression), the “overall survival compared to chemotherapy” value was “worse”. Also, the “survival versus platinum/5FU/cetuximab” value in series [2] (pembrolizumab monotherapy, patients whose tumors expressed PD-L1 protein by immunohistochemistry) was “improved survival”.
For the substance nivolumab, the “overall survival compared to chemotherapy or cetuximab” value in series [1] is given as “improved overall survival”.
